Key:
human recombinant LSD1 [1] = target: T1, human recombinant LSD1 (Homo sapiens, UniProt O60341); assay: Recombinant LSD1 inhibition assay; type: biochemical; settings: 10 μM
human recombinant LSD1 [2] = target: T1, human recombinant LSD1; settings: previous studies ref 8; cited from earlier work

| Effect on LSD1 activity (human recombinant LSD1 [1]) | Compound | Mode of inhibition (human recombinant LSD1 [2]) |
| --- | --- | --- |
| increase in the activity of LSD1 | Cl.Cl.O=C(NCCCNCCCCCCNCCCNC(=O)NCc1ccccc1)NCc1ccccc1 [Compound 9d] | – |
| increase in the activity of LSD1 | Cl.O=C(NCCCNCCCCCNCCCNC(=O)Nc1ccccc1)Nc1ccccc1 [Compound 7a, 1,13-bis-{3-[1-(phenyl)ureido]}-4,10-diazatridecane dihydrochloride] | – |
| – | Cl.N=C(NCCCNCCCCCCCNCCCNC(=N)NC(=N)NCCC(c1ccccc1)c1ccccc1)NC(=N)NCCC(c1ccccc1)c1ccccc1 [Compound 2, verlindamycin] | non-competitive inhibitor |
| increase in the activity of LSD1 | CCCNC(=O)NCCCNCCCCCCNCCCNC(=O)NCCC.Cl.Cl [Compound 9b] | – |
| increase in the activity of LSD1 | CCNC(=O)NCCCNCCCCCCNCCCNC(=O)NCC.Cl.Cl [Compound 9a] | – |
